Numbered stars: 1 amine (or outer) side, 2 acyl side, 3 side chain; on linkers, the order of the positions; unused ones are H or OH. Square brackets hold non-standard residues; d marks the D form. Peptide text beside a SMILES is read from it. * marks the point of attachment. Cholyl = C[C@H](CCC(=O)*)[C@H]1CC[C@H]2[C@@H]3[C@H](O)C[C@@H]4C[C@H](O)CC[C@]4(C)[C@H]3C[C@H](O)[C@]12C; X2 = O=C(C1(O)C[C@H](O)[C@@H](N[*:1])[C@H]([C@H](O)[C@H](O)CO)O1)[*:2]; X3 = N=C1N[C@H]2[C@H](CS[C@H]2CCCCC(=O)*)N1
Biological target: T1, Aβ1-40 (Homo sapiens, UniProt P05067)
T1 construct: (β-AP1-40) was obtained commercially from Bachem (Torrance, Calif.); purchased Bachem (Torrance, Calif.)
Assay: Nucleation assay (turbidity, A405 nm);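 further: synthetic Aβ monomer polymerization followed by turbidity in 96-well plates with continuous shaking, read every 15 minutes over 5 hours, compared against wells lacking test compound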
Assay type: biochemical
Details: for inhibition at 100 mol %: 100 mole % inhibitor, read-out: % Inucl'n (percent reduction in maximum observed turbidity)

[1] = Table II, 100 mole % vs 50 μM Aβ1-40

T1 sequence (P05067 672-711): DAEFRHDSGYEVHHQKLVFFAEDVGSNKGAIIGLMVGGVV
From the text: The nucleation assay is employed to determine the ability of test compounds to alter (e.g. inhibit) the early events in formation of β-AP fibers from monomeric β-AP. […] The time delay before polymerization of β-AP monomer can be quantified as well as the extent of formation of insoluble fiber by light scattering (turbidity). Polymerization reaches equilibrium when the maximum turbidity reaches a plateau. The turbidity of a solution of natural β-AP in the absence or presence of various concentrations of a β-amyloid modulator compound is determined by measuring the apparent absorbance of the solution at 405 nm (A405 nm) over time. The threshold of sensitivity for the measurement of turbidity is in the range of 15-20 μM β-AP. […] This assay can be performed using stirring or shaking to accelerate polymerization, thereby increasing the speed of the assay. Moreover the assay can be adapted to a 96-well plate format to screen multiple compounds.
HFIP-solubilized peptide is sonicated in a waterbath sonicator for 5 mM at highest setting, then evaporated to dryness under a stream of argon. The peptide film is resuspended in anhydrous dimethylsulfoxide (DMSO) at a concentration of 6.9 mg/ml (25× concentration), sonicated for 5 mM as before, then filtered through a 0.2 micron nylon syringe filter (VWR cat. No. 28196-050). Test compounds are dissolved in DMSO at a 100× concentration. […] Ten microliters of the mixture is then added to the bottom of a well of a Corning Costar ultra low binding 96-well plate (Corning Costar, Cambridge Mass.; cat. No. 2500). Ninety microliters of water is added to the well, the plate is shaken on a rotary shaken at a constant speed at room temperature for 30 seconds, an additional 100 μl of 2×PTL buffer (20 mM NaH2PO4, 300 mM NaCl, pH 7.4) is added to the well, the plate is reshaken for 30 seconds and a baseline (t=0) turbidity reading is taken by measuring the apparent absorbance at 405 nm using a Bio-Rad Model 450 Microplate Reader. The plate is then returned to the shaker and shaken continuously for 5 hours. Turbidity readings are taken at 15 minute intervals.
β-amyloid aggregation in the absence of any modulators results in enhanced turbidity of the natural β-AP solution (i.e., an increase in the apparent absorbance at 405 nm over time).
Accordingly a fold increase in lag time of 1.0 indicates no change in lag time, whereas numbers >1.0 indicate an increase in lag time. The “% inhibition of plateau”, which is a measure of the ability of the compound to decrease the total amount of aggregation, refers to the reduction of the final turbidity in the presence of the test compound expressed as a percent of the control without the test compound.

CC(=O)N[C@H]1[C@H]([C@H](O)[C@H](O)CO)OC(O)(C(=O)N[C@@H](Cc2c[nH]cn2)C(=O)N[C@@H](CC(=O)O)C(=O)N[C@@H](CO)C(=O)NCC(=O)N[C@@H](Cc2ccc(O)cc2)C(=O)N[C@@H](CCC(=O)O)C(=O)N[C@H](C(=O)N[C@@H](Cc2c[nH]cn2)C(=O)N[C@@H](Cc2c[nH]cn2)C(=O)N[C@@H](CCC(N)=O)C(=O)N[C@@H](CCCCN)C(=O)N[C@@H](CC(C)C)C(=O)N[C@H](C(=O)N[C@@H](Cc2ccccc2)C(=O)N[C@@H](Cc2ccccc2)C(=O)O)C(C)C)C(C)C)C[C@@H]1O (stereo partly drawn) [PPI-266] (Ac-[X2]HDSGYEVHHQKLVFF-OH)
Fold Increase in Lag Time [1]: 1.3 fold

CC(C)C[C@H](NC(=O)[C@H](CCCCN)NC(=O)[C@H](CCC(N)=O)NC(=O)[C@H](Cc1c[nH]cn1)NC(=O)[C@H](Cc1c[nH]cn1)NC(=O)[C@@H](NC(=O)[C@H](CCC(=O)O)NC(=O)[C@H](Cc1ccc(O)cc1)NC(=O)CNC(=O)[C@H](CO)NC(=O)[C@H](CC(=O)O)NC(=O)[C@H](Cc1c[nH]cn1)NC(=O)CCCC[C@@H]1SC[C@@H]2NC(=N)N[C@@H]21)C(C)C)C(=O)N[C@H](C(=O)N[C@@H](Cc1ccccc1)C(=O)N[C@@H](Cc1ccccc1)C(=O)O)C(C)C [PPI-267, iminobiotinyl-Aβ6-20] (X3-HDSGYEVHHQKLVFF-OH)
Fold Increase in Lag Time [1]: 1.6 fold

CC(C)C[C@H](NC(=O)[C@H](CCCCN)NC(=O)CC[C@@H](C)[C@H]1CC[C@H]2[C@@H]3[C@H](O)C[C@@H]4C[C@H](O)CC[C@]4(C)[C@H]3C[C@H](O)[C@]12C)C(=O)N[C@H](C(=O)N[C@@H](Cc1ccccc1)C(=O)N[C@@H](Cc1ccccc1)C(=O)N[C@@H](C)C(=O)N[C@@H](CCC(=O)O)C(=O)N[C@@H](CC(=O)O)C(=O)N[C@H](C(=O)NCC(=O)N[C@@H](CO)C(=O)N[C@@H](CC(N)=O)C(=O)N[C@@H](CCCCN)C(=O)NCC(=O)N[C@@H](C)C(=O)O)C(C)C)C(C)C [PPI-274] (Cholyl-KLVFFAEDVGSNKGA-OH)
Fold Increase in Lag Time [1]: >4.5 fold

CC(=O)N[C@H]1[C@H]([C@H](O)[C@H](O)CO)OC(O)(C(=O)N[C@@H](CCCCN)C(=O)N[C@@H](CC(C)C)C(=O)N[C@H](C(=O)N[C@@H](Cc2ccccc2)C(=O)N[C@@H](Cc2ccccc2)C(=O)N[C@@H](C)C(=O)N[C@@H](CCC(=O)O)C(=O)N[C@@H](CC(=O)O)C(=O)N[C@H](C(=O)NCC(=O)N[C@@H](CO)C(=O)N[C@@H](CC(N)=O)C(=O)N[C@@H](CCCCN)C(=O)NCC(=O)N[C@@H](C)C(=O)O)C(C)C)C(C)C)C[C@@H]1O (stereo partly drawn) [PPI-276] (Ac-[X2]KLVFFAEDVGSNKGA-OH)
Fold Increase in Lag Time [1]: ~1 fold

CC(C)C[C@H](NC(=O)[C@H](CCCCN)NC(=O)CCCC[C@@H]1SC[C@@H]2NC(=N)N[C@@H]21)C(=O)N[C@H](C(=O)N[C@@H](Cc1ccccc1)C(=O)N[C@@H](Cc1ccccc1)C(=O)N[C@@H](C)C(=O)N[C@@H](CCC(=O)O)C(=O)N[C@@H](CC(=O)O)C(=O)N[C@H](C(=O)NCC(=O)N[C@@H](CO)C(=O)N[C@@H](CC(N)=O)C(=O)N[C@@H](CCCCN)C(=O)NCC(=O)N[C@@H](C)C(=O)O)C(C)C)C(C)C [PPI-277] (X3-KLVFFAEDVGSNKGA-OH)
Fold Increase in Lag Time [1]: 1.2 fold

CC[C@H](C)[C@H](NC(=O)[C@H](C)NC(=O)CNC(=O)[C@H](CCCCN)NC(=O)[C@H](CC(N)=O)NC(=O)[C@H](CO)NC(=O)CNC(=O)[C@@H](NC(=O)[C@H](CC(=O)O)NC(=O)[C@H](CCC(=O)O)NC(=O)[C@H](C)NC(=O)CC[C@@H](C)[C@H]1CC[C@H]2[C@@H]3[C@H](O)C[C@@H]4C[C@H](O)CC[C@]4(C)[C@H]3C[C@H](O)[C@]12C)C(C)C)C(=O)N[C@H](C(=O)NCC(=O)N[C@@H](CC(C)C)C(=O)N[C@@H](CCSC)C(=O)O)[C@@H](C)CC [PPI-279] (Cholyl-AEDVGSNKGAIIGLM-OH)
Fold Increase in Lag Time [1]: 1.6 fold

CC[C@H](C)[C@H](NC(=O)[C@H](C)NC(=O)CNC(=O)[C@H](CCCCN)NC(=O)[C@H](CC(N)=O)NC(=O)[C@H](CO)NC(=O)CNC(=O)[C@@H](NC(=O)[C@H](CC(=O)O)NC(=O)[C@H](CCC(=O)O)NC(=O)[C@H](C)NC(=O)C1(O)C[C@H](O)[C@@H](NC(C)=O)[C@H]([C@H](O)[C@H](O)CO)O1)C(C)C)C(=O)N[C@H](C(=O)NCC(=O)N[C@@H](CC(C)C)C(=O)N[C@@H](CCSC)C(=O)O)[C@@H](C)CC (stereo partly drawn) [PPI-281] (Ac-[X2]AEDVGSNKGAIIGLM-OH)
Fold Increase in Lag Time [1]: ~1 fold

CC[C@H](C)[C@H](NC(=O)[C@H](C)NC(=O)CNC(=O)[C@H](CCCCN)NC(=O)[C@H](CC(N)=O)NC(=O)[C@H](CO)NC(=O)CNC(=O)[C@@H](NC(=O)[C@H](CC(=O)O)NC(=O)[C@H](CCC(=O)O)NC(=O)[C@H](C)NC(=O)CCCC[C@@H]1SC[C@@H]2NC(=N)N[C@@H]21)C(C)C)C(=O)N[C@H](C(=O)NCC(=O)N[C@@H](CC(C)C)C(=O)N[C@@H](CCSC)C(=O)O)[C@@H](C)CC [PPI-282] (X3-AEDVGSNKGAIIGLM-OH)
Fold Increase in Lag Time [1]: ~1 fold

CC[C@H](C)[C@H](NC(=O)[C@H](C)NC(=O)CNC(=O)[C@H](CCCCN)NC(=O)[C@H](CC(N)=O)NC(=O)[C@H](CO)NC(=O)CC[C@@H](C)[C@H]1CC[C@H]2[C@@H]3[C@H](O)C[C@@H]4C[C@H](O)CC[C@]4(C)[C@H]3C[C@H](O)[C@]12C)C(=O)N[C@H](C(=O)NCC(=O)N[C@@H](CC(C)C)C(=O)N[C@@H](CCSC)C(=O)N[C@H](C(=O)NCC(=O)NCC(=O)N[C@H](C(=O)N[C@H](C(=O)O)C(C)C)C(C)C)C(C)C)[C@@H](C)CC [PPI-284] (Cholyl-SNKGAIIGLMVGGVV-OH)
Fold Increase in Lag Time [1]: >4.5 fold

CC[C@H](C)[C@H](NC(=O)[C@H](C)NC(=O)CNC(=O)[C@H](CCCCN)NC(=O)[C@H](CC(N)=O)NC(=O)[C@H](CO)NC(=O)C1(O)C[C@H](O)[C@@H](NC(C)=O)[C@H]([C@H](O)[C@H](O)CO)O1)C(=O)N[C@H](C(=O)NCC(=O)N[C@@H](CC(C)C)C(=O)N[C@@H](CCSC)C(=O)N[C@H](C(=O)NCC(=O)NCC(=O)N[C@H](C(=O)N[C@H](C(=O)O)C(C)C)C(C)C)C(C)C)[C@@H](C)CC (stereo partly drawn) [PPI-286] (Ac-[X2]SNKGAIIGLMVGGVV-OH)
Fold Increase in Lag Time [1]: 1.3 fold

CC[C@H](C)[C@H](NC(=O)[C@H](C)NC(=O)CNC(=O)[C@H](CCCCN)NC(=O)[C@H](CC(N)=O)NC(=O)[C@H](CO)NC(=O)CCCC[C@@H]1SC[C@@H]2NC(=N)N[C@@H]21)C(=O)N[C@H](C(=O)NCC(=O)N[C@@H](CC(C)C)C(=O)N[C@@H](CCSC)C(=O)N[C@H](C(=O)NCC(=O)NCC(=O)N[C@H](C(=O)N[C@H](C(=O)O)C(C)C)C(C)C)C(C)C)[C@@H](C)CC [PPI-287] (X3-SNKGAIIGLMVGGVV-OH)
Fold Increase in Lag Time [1]: 2.3 fold

C[C@H](CCC(=O)O)[C@H]1CC[C@H]2[C@@H]3[C@H](O)C[C@@H]4C[C@H](O)CC[C@]4(C)[C@H]3C[C@H](O)[C@]12C [PPI-293, Cholic acid, reference compound]
inhibitory activity on Aβ aggregation: had no effect on Aβ aggregation | inhibition at 100 mol % (Table V): 0%

CC(C)C[C@H](NC(=O)[C@H](CCCCN)NC(=O)[C@H](CCC(N)=O)NC(=O)[C@H](Cc1c[nH]cn1)NC(=O)[C@H](Cc1c[nH]cn1)NC(=O)[C@@H](NC(=O)[C@H](CCC(=O)O)NC(=O)[C@H](Cc1ccc(O)cc1)NC(=O)CNC(=O)[C@H](CO)NC(=O)[C@H](CC(=O)O)NC(=O)[C@H](Cc1c[nH]cn1)NC(=O)CC[C@@H](C)[C@H]1CC[C@H]2[C@@H]3[C@H](O)C[C@@H]4C[C@H](O)CC[C@]4(C)[C@H]3C[C@H](O)[C@]12C)C(C)C)C(=O)N[C@H](C(=O)N[C@@H](Cc1ccccc1)C(=O)N[C@@H](Cc1ccccc1)C(N)=O)C(C)C [PPI-296] (Cholyl-HDSGYEVHHQKLVFF-NH2)
Fold Increase in Lag Time (Table III, 33 mole %): 1.8 fold

CC(C)C[C@H](NC(=O)[C@H](CCCCN)NC(=O)[C@H](CCC(N)=O)NC(=O)[C@H](Cc1c[nH]cn1)NC(=O)[C@H](Cc1c[nH]cn1)NC(=O)[C@@H](NC(=O)[C@H](CCC(=O)O)NC(=O)[C@H](Cc1ccc(O)cc1)NC(=O)CNC(=O)[C@H](CO)NC(=O)[C@H](CC(=O)O)NC(=O)[C@H](Cc1c[nH]cn1)NC(=O)CC[C@@H](C)[C@H]1CC[C@H]2[C@@H]3[C@H](O)C[C@@H]4C[C@H](O)CC[C@]4(C)[C@H]3C[C@H](O)[C@]12C)C(C)C)C(N)=O [PPI-325] (Cholyl-HDSGYEVHHQKL-NH2)
Fold Increase in Lag Time (Table III, 33 mole %): 1.8 fold

CC(C)[C@H](NC(=O)[C@H](CCC(=O)O)NC(=O)[C@H](Cc1ccc(O)cc1)NC(=O)CNC(=O)[C@H](CO)NC(=O)[C@H](CC(=O)O)NC(=O)[C@H](Cc1c[nH]cn1)NC(=O)CC[C@@H](C)[C@H]1CC[C@H]2[C@@H]3[C@H](O)C[C@@H]4C[C@H](O)CC[C@]4(C)[C@H]3C[C@H](O)[C@]12C)C(=O)N[C@@H](Cc1c[nH]cn1)C(=O)N[C@@H](Cc1c[nH]cn1)C(N)=O [PPI-331] (Cholyl-HDSGYEVHH-NH2)
Fold Increase in Lag Time (Table III, 33 mole %): 1.0 fold

C[C@H](CCC(=O)N[C@@H](Cc1c[nH]cn1)C(=O)N[C@@H](CC(=O)O)C(=O)N[C@@H](CO)C(=O)NCC(=O)N[C@@H](Cc1ccc(O)cc1)C(N)=O)[C@H]1CC[C@H]2[C@@H]3[C@H](O)C[C@@H]4C[C@H](O)CC[C@]4(C)[C@H]3C[C@H](O)[C@]12C [PPI-339] (Cholyl-HDSGY-NH2)
Fold Increase in Lag Time (Table III, 33 mole %): 1.1 fold | ΔLag (ratio of lag time with test compound to lag time of control) (Table V, 100 mole % inhibitor relative to Aβ1-40): 1.1 | inhibition at 100 mol % (Table V): -18%

CC(C)C[C@H](NC(=O)[C@H](CCCCN)NC(=O)[C@H](CCC(N)=O)NC(=O)[C@H](Cc1c[nH]cn1)NC(=O)[C@H](Cc1c[nH]cn1)NC(=O)[C@@H](NC(=O)[C@H](CCC(=O)O)NC(=O)[C@H](Cc1ccc(O)cc1)NC(=O)CNC(=O)[C@H](CO)NC(=O)[C@H](CC(=O)O)NC(=O)CC[C@@H](C)[C@H]1CC[C@H]2[C@@H]3[C@H](O)C[C@@H]4C[C@H](O)CC[C@]4(C)[C@H]3C[C@H](O)[C@]12C)C(C)C)C(=O)N[C@H](C(=O)N[C@@H](Cc1ccccc1)C(=O)N[C@@H](Cc1ccccc1)C(=O)O)C(C)C [PPI-341, cholyl-Aβ7-20] (Cholyl-DSGYEVHHQKLVFF-OH)
Fold Increase in Lag Time (Table III, 33 mole %): 2 fold | Fold Increase in Lag Time (Table III, 100 mole %): >4.5 fold

From patent US20110009343A1, “MODULATORS OF AMYLOID AGGREGATION” (Praecis Pharmaceuticals, Inc., priority 1995, published 2011)
